Experimental data: ChEMBL document CHEMBL1201862, “PubChem BioAssay data set” (2004)
Values joined by “and” are separate entries in the source; they are usually repeats but may differ in a detail not shown here. Equal entries are not always repeated. Active and inactive are the calls of the source.

Key:
Large T antigen = Large T antigen (Simian virus 40, UniProt P03070); type: functional, Betapolyomavirus macacae;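 also: Confirmatory-stage PubChem screen for compounds that inhibit SV40 T antigen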
[1] = biological target: T1, Apoptotic protease-activating factor 1 (Homo sapiens, UniProt O14727); type: functional
T1 sequence (O14727 whole entry): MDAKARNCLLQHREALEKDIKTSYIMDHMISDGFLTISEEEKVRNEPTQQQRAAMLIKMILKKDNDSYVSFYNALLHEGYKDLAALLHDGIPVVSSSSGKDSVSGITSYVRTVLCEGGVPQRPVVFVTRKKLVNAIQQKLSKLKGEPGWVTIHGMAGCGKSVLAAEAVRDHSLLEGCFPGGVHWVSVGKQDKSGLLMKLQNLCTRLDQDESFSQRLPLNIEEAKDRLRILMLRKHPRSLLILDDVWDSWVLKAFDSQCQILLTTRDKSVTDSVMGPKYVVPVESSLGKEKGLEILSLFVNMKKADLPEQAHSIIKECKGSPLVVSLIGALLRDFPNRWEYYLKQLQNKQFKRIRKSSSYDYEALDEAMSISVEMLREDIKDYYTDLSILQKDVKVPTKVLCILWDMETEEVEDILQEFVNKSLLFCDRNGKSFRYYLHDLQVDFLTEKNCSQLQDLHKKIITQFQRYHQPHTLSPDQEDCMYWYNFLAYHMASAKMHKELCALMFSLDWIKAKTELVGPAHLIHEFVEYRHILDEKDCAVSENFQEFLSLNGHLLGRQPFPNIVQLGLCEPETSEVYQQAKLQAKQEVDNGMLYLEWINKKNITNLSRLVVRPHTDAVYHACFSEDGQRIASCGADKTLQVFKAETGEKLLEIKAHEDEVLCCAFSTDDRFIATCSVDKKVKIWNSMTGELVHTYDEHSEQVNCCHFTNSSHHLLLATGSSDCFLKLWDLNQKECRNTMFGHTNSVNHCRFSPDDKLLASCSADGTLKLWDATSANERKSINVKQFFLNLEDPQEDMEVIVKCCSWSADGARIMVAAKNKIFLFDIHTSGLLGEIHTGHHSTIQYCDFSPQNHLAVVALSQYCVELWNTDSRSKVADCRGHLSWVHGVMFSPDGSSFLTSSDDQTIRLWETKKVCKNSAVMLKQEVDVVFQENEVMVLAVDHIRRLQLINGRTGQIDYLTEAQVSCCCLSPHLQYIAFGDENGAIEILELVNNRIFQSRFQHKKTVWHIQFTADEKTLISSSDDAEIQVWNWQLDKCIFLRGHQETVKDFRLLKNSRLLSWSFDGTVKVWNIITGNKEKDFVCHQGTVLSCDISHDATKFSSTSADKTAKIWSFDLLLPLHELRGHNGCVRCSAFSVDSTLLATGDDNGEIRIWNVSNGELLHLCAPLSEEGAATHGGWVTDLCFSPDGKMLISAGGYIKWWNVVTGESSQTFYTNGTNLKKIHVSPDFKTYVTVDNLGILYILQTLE

[2] = biological target: T2, Short transient receptor potential channel 4 (Mus musculus, UniProt Q9QUQ5); test: mouse TRPC4 channel activators, dose response, cell-based, HEK293 TRPC4/mu-opioid, Fluo-4 calcium (AID 434937); type: functional
T2 sequence (Q9QUQ5 whole entry): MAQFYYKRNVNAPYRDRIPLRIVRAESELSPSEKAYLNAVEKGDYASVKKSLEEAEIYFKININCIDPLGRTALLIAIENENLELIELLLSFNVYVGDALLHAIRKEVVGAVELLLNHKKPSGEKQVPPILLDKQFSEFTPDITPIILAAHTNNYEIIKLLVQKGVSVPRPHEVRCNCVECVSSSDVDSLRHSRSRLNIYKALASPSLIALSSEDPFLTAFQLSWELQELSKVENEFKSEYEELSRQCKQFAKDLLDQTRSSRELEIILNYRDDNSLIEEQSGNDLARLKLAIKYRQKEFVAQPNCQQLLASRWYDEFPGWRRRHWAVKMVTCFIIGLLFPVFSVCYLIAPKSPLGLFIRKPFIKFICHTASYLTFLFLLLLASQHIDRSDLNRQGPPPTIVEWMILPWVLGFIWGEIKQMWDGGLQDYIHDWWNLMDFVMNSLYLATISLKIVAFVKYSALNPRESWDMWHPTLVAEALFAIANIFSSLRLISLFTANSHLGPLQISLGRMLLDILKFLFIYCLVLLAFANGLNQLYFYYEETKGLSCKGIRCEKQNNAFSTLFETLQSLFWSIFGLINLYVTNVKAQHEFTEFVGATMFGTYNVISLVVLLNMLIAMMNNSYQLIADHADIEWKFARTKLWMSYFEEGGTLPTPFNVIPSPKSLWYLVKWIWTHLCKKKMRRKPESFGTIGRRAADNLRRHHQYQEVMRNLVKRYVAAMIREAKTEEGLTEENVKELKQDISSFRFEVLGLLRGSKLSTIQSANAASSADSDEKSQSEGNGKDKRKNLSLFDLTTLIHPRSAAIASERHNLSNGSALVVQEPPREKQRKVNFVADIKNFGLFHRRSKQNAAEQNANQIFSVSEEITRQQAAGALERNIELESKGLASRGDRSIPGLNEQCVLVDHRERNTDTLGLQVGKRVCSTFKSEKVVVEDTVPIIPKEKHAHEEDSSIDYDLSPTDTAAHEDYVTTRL

INS1 = test: beta cell apoptosis inhibitors, cytokine rescue, dose response, luminescence, retest (AID 449756); type: functional, cell-based; conditions: Rattus norvegicus;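 also: cell death triggered by IL-1 beta plus TNF-alpha plus IFN-gamma mixture; protective hits raise ATP signal compared with cytokine alone wells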
[3] = biological target: FAD-linked sulfhydryl oxidase ALR (Homo sapiens, UniProt P55789); test: inhibitors of human ALR sulfhydryl oxidase, dose response, biochemical, H2O2 detection, luminescence, cherry-pick (AID 493248)
[4] = biological target: T3, Nuclear receptor subfamily 0 group B member 1 (Homo sapiens, UniProt P51843); type: functional, cell-based;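 also: HEK293T cells transfected with SF-1 and DAX-1 plus StAR promoter luciferase reporter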
T3 sequence (P51843 whole entry): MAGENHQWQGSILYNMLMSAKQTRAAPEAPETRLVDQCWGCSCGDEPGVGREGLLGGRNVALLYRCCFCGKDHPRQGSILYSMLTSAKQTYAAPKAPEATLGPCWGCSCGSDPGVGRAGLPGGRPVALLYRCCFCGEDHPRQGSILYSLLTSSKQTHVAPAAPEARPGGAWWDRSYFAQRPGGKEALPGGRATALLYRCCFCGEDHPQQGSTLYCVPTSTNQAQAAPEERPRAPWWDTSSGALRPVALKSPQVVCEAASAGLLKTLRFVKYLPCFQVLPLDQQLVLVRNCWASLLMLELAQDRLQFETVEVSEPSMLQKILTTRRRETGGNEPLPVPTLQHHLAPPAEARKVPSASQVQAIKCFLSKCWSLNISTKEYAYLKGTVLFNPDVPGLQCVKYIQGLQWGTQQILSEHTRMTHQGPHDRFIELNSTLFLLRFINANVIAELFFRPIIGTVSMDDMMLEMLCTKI

cells = type: functional, cell-based
[5] = Luminescence Cell-Based Dose Confirmation HTS to Identify Inhibitors of Platelet Dense Granule Release. [Related pubchem assays: 1663 (Primary HTS), 1678 (Summary of Project)]; type: functional
Cytochrome P450 2C19 = Cytochrome P450 2C19 (Homo sapiens, UniProt P33261); test: Cytochrome panel assay with activity outcomes. Panel member name: p450-cyp2c19 Compounds with AC50 equal or less than 10 uM are considered active; type: functional; conditions: read-out: AC50
Cytochrome P450 3A4 = Cytochrome P450 3A4 (Homo sapiens, UniProt P08684);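 also: CYP3A4 tested as one member of a cytochrome P450 panel screen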
Cytochrome P450 2C9 = Cytochrome P450 2C9 (Homo sapiens, UniProt P11712)
[6] = biological target: Luciferin 4-monooxygenase (Photinus pyralis, UniProt P08659); test: firefly luciferase enzyme inhibitors, dose response, biochemical, luminescence (AID 1891)
[7] = biological target: T2, Short transient receptor potential channel 4; test: mouse TRPC4 channel inhibitors, dose response, cell-based, HEK293 TRPC4/mu-opioid, Fluo-4 calcium (AID 434942); type: functional;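 also: potency of inhibitors blocking the TRPC4 calcium response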
[8] = Shn3 3'UTR reporter inhibitors, dose response, cell-based, Clone20 osteoblasts, firefly luciferase, cherry-picked (AID 624132); type: functional;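 also: firefly luciferase luminescence from reporter carrying the Shn3 3'UTR in osteoblasts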
[9] = HepG2 cell cytotoxicity, dose response, cytotoxicity control for Shn3 inhibitor project, CellTiter-Glo, cherry-picked (AID 624134); type: functional, cell-based
[10] = biological target: Heat shock protein HSP 90-alpha (Homo sapiens, UniProt P07900); type: functional, organism-based
[11] = control 3'UTR Renilla luciferase suppression, dose response, counter-screen for Shn3 inhibitor project, cell-based, Clone20-Shn3RL, cherry-picked (AID 624133); type: functional
Vero = test: cells; type: functional; conditions: Chlorocebus sabaeus
[12] = Fluorescence-based cell-based high throughput dose response assay for inhibitors of the interaction of nucleotide-binding oligomerization domain containing 2 (NOD2) and the receptor-interacting serine-threonine kinase 2 (RIPK2).; type: functional; conditions: Homo sapiens
[13] = cytotoxicity toward DRD oncogenic fibroblasts, dose response, cell-based, non-viral oncogenic, luminescence (AID 1934); type: functional; conditions: Homo sapiens
BJ [14] = test: cells; type: functional, cell-based; conditions: Homo sapiens
BJ [15] = test: cytotoxicity toward BJ-TERT fibroblasts, dose response, cell-based, RAS-independent, luminescence (AID 1933); type: functional; conditions: Homo sapiens
BJ [16] = test: cytotoxicity toward BJ-TERT-LT-ST fibroblasts, dose response, cell-based, RAS-independent, luminescence (AID 1935); type: functional; conditions: Homo sapiens;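 also: BJ fibroblasts immortalized with TERT plus LT and ST oncogenes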
[17] = cytotoxicity in HEK-293T cells, dose response, cytotoxicity control for TCR NF-kB inhibitor project, luminescence, T-cell screen hits (AID 489026); type: functional, cell-based;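 also: cells exposed to compound about 14 hours before the viability readout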
[18] = biological target: T4, DNA repair and recombination protein RAD54-like (Homo sapiens, UniProt Q92698); test: inhibitors of human RAD54 branch migration, confirmation, biochemical, fluorescence, cherry-picked samples, dose series (AID 651657); type: functional
T4 sequence (Q92698 whole entry): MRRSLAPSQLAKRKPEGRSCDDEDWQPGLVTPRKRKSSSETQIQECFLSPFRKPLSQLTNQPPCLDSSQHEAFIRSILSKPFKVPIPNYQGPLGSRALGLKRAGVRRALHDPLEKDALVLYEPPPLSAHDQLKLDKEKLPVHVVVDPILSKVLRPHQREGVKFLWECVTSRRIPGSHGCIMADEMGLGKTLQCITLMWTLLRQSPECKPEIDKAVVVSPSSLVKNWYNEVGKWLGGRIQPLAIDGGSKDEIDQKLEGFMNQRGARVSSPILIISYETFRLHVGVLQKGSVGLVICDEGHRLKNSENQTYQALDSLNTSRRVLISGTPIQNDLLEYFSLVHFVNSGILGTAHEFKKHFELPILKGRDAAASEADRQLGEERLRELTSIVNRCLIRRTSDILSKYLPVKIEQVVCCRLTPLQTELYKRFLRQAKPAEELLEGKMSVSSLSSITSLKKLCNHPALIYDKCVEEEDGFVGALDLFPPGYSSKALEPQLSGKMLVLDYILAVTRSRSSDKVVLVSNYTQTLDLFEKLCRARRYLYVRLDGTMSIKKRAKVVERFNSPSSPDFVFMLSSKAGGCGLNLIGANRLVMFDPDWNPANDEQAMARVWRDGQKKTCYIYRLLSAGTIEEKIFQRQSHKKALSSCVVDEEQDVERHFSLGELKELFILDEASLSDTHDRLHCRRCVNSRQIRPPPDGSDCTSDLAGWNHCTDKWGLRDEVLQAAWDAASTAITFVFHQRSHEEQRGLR

Sequence of Cytochrome P450 3A4 (P08684 whole entry): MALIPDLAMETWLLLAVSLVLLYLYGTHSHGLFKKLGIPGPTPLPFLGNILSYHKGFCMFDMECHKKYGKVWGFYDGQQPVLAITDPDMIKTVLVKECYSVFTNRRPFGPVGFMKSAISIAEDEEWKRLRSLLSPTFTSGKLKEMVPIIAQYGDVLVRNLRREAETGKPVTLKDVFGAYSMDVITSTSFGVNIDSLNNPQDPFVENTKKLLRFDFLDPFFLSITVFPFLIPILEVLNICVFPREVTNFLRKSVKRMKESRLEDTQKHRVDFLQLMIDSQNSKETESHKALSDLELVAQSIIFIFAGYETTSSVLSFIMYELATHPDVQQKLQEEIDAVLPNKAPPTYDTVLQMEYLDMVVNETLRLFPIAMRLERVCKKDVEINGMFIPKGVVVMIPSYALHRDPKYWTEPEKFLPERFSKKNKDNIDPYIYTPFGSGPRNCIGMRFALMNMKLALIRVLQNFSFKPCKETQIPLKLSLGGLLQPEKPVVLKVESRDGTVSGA
Sequence of Cytochrome P450 2C9 (P11712 whole entry): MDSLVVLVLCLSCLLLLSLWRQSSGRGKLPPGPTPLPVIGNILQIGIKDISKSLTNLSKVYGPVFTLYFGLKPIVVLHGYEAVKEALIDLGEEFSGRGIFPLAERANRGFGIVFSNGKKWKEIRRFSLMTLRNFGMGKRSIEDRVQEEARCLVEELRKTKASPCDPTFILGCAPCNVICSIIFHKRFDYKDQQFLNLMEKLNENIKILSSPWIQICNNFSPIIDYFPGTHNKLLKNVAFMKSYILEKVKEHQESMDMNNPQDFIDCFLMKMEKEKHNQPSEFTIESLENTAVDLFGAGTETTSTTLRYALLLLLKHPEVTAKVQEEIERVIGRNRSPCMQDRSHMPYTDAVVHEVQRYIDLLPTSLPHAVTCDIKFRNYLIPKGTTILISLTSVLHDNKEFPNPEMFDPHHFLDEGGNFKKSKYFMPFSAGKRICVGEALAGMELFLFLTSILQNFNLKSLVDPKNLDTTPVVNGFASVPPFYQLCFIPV
Sequence of FAD-linked sulfhydryl oxidase ALR (P55789 whole entry): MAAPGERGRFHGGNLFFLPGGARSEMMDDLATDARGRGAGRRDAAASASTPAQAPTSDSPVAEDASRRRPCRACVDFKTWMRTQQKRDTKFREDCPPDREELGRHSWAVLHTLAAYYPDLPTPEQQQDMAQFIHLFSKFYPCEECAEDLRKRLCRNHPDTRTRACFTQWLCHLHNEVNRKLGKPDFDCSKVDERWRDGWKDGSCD
Sequence of Luciferin 4-monooxygenase (P08659 whole entry): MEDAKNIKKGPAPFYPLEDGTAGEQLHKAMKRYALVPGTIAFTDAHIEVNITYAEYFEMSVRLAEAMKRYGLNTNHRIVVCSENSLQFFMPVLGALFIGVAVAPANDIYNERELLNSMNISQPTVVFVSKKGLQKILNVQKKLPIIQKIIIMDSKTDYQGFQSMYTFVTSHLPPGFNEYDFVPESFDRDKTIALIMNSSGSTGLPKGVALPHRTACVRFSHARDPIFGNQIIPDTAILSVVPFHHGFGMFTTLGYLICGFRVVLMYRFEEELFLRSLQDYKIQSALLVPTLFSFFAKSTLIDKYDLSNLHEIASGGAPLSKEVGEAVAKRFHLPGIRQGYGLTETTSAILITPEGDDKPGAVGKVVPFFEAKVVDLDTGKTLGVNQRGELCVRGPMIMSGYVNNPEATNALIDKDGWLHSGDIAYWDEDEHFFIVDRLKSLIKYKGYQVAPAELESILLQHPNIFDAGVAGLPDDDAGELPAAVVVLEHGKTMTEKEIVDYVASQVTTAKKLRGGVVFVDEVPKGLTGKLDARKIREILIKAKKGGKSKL
Sequence of Cytochrome P450 2C19 (P33261 whole entry): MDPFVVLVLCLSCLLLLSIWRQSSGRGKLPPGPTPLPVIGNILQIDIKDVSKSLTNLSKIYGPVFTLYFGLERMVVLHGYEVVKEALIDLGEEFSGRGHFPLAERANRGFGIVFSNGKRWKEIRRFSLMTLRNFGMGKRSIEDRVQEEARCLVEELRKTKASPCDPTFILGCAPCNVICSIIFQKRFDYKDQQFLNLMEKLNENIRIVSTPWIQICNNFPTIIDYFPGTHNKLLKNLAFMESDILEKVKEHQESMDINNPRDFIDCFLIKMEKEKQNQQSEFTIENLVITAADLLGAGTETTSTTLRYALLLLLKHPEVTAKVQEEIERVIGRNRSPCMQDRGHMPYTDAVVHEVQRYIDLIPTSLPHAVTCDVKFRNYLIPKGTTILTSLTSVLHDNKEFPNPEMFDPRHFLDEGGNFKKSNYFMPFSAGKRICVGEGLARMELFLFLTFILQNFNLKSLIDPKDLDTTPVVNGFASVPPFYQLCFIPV
Sequence of Large T antigen (P03070 whole entry): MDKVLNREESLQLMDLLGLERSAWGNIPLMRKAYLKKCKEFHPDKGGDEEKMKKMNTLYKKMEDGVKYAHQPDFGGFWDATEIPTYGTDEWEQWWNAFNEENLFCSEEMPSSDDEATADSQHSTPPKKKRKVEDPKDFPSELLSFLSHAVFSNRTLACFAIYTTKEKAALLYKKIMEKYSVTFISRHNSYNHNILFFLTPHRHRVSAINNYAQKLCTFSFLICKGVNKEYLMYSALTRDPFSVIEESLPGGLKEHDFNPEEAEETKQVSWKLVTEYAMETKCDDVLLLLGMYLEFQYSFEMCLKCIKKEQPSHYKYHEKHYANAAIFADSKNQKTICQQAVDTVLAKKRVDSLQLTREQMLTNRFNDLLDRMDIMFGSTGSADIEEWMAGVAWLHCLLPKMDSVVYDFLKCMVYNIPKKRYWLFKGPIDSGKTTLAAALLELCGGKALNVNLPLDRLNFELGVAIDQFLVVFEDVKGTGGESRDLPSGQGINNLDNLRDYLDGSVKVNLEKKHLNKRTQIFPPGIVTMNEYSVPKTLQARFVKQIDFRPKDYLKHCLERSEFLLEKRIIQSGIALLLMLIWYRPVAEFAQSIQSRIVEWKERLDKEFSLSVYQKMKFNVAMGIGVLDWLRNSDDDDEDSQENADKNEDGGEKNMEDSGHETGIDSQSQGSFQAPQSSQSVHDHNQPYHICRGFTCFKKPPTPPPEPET

COc1cc(-c2c(C#N)c(O)nc3c2c(C)nn3-c2ccccc2)ccc1O
IC50 (Large T antigen): > 100 µM (active) | IC50 [1]: 20.5 µM (active)

CCN1CCCC1CNS(=O)(=O)c1c(C)cc(C)cc1C (configuration not stated)
EC50 [2]: 3.35 µM (active)

CC(Oc1cccc(Cl)c1)C(=O)Nc1cc(S(=O)(=O)N2CCOCC2)ccc1N1CCCCC1 (configuration not stated)
AC50 (INS1): 5.41 µM (active) | IC50 [1]: 74.9 µM (active)

COc1ccc(/C=N/Nc2nc3ccccc3o2)cc1O
AC50 [3]: 2.59 µM (active) | IC50 [4]: > 67.5 µM (inactive) | IC50 (cells): > 67.5 µM (inactive)

COc1ccc(S(N)(=O)=O)cc1C(=O)NCCCN1CCN(c2cccc(Cl)c2)CC1.CS(=O)(=O)O
EC50 [5]: > 56.1 µM (not active) | AC50 (Cytochrome P450 2C19): 14.1 µM (inconclusive) | AC50 (Cytochrome P450 3A4): inconclusive | AC50 (Cytochrome P450 2C9): 100 nM (inconclusive) | EC50 [6]: > 112 µM (not active)

O=C(NCc1ccccc1)c1ccc2c(c1)C(=O)N(CC1CCCO1)C2=O (configuration not stated)
AC50 (Cytochrome P450 3A4): inconclusive

Cc1ccc(COn2c(-c3ccc(Cl)cc3Cl)nc3ncccc32)cc1
EC50 [7]: 0.473 µM (active) | EC50 [2]: 0.749 µM (active)

O=C(OCc1ccccc1)c1ccc(NCc2cc(O)ccc2O)cc1
AC50 [8]: 0.711 µM (active) | AC50 [9]: 22 µM (active) | AC50 [10]: 8.63 µM (active) | AC50 [11]: 3.87 µM (active)

O=C(COc1ccc(Cl)cc1Cl)NC(=O)NC1CCCC1
IC50 [4]: > 67.5 µM (inactive) | IC50 (cells): > 67.5 µM (inactive)

NCCSc1c(-c2ccc(Cl)cc2)[nH]c2ccccc12
CC50 (Vero): > 25 µM (active) | EC50 [2]: 4.73 µM (active)

CC(=O)O[C@]1(C(C)=O)CC[C@@H]2[C@@H]3C=C(Cl)C4=CC(=O)[C@H]5C[C@@H]5[C@]4(C)[C@H]3CC[C@]21C
AC50 (Cytochrome P450 3A4): inconclusive | AC50 (Cytochrome P450 2C9): 15.8 µM (inconclusive) and 31.6 µM (inconclusive)

CC(=O)Nc1ccc(S(=O)(=O)N2c3ccccc3C(C)=CC2(C)C)cc1
IC50 [12]: 49.7 µM (inactive) | EC50 [13]: 10.4 µM (inconclusive) | EC50 (BJ [14]): 13 µM (inconclusive) | EC50 (BJ [15]): 7.82 µM (inconclusive) | EC50 (BJ [16]): 9.33 µM (inconclusive) | IC50 [17]: > 80 µM (inactive)

Cc1ccc(NC(=O)CCN2CCC(Cc3ccccc3)CC2)cc1
EC50 [2]: 0.0667 µM (active)

c1ccc2c3nc[nH]c(N4CCN(C5CCCCC5)CC4)c-3nc2c1
AC50 [18]: 40.5 µM (active)

Cn1cccc1C(=O)N1CCC2(CCN(C(=O)Nc3ccccc3)CC2)CC1
AC50 (Cytochrome P450 3A4): inconclusive

Cc1cc(C)c2c(N=NN3CCCCC3)[nH]nc2n1
AC50 [10]: 4.01 µM (active)

Cc1noc2ncnc(Sc3c(Cl)cccc3Cl)c12
IC50 [12]: 4.6 µM (active)
